What all share (format): cell-based
In assay [1] the test system is bloodstream-form trypanosome T. brucei brucei 427 strain. Description: Trypanosoma brucei brucei high-throughput screening assay (resazurin). On the procedure: Example 105. Trypanosoma brucei brucei High-Throughput Screening Assay Procedure
All experiments were conducted with the bloodstream-form trypanosome T. brucei brucei 427 strain obtained from Seattle Biomedical Research Institute (Seattle, Wash.). Parasites were cultured in T-25 vented cap flasks and kept in humidified incubators at 37° C. and 5% CO2. The parasite culture media was complete HMI-9 medium containing 10% FBS, 10% Serum Plus medium and penicillin/streptomycin. To ensure log growth phase, trypanosomes were sub-cultured at appropriate dilutions every 2-3 days. Approximately 50 microliters of log phase cultures were diluted 1:10 in HMI-9 and 10 μL of the diluted culture was removed and counted using a hemocytometer to determine parasite concentration. Parasites were diluted by addition of an appropriate volume of HMI-9 to achieve a final parasite concentration of 2×10^5/mL. Compounds of the invention to be tested were serially diluted in DMSO and 0.5 μL added to 49.5 μL HMI-9 in triplicate 96-well plates using a Biomek NX liquid handler. Parasites from the diluted stock were added to each well (50 μL) using a Multidrop 384 dispenser to give a final concentration of 1.0×10^5/ml parasites in […] for DMSO. Trypanosomes were incubated with compounds for 72 hrs at 37° C. with 5% CO2. Resazurin (20 μL of 12.5 mg/ml stock) from Sigma-Aldrich was added to each well and plates were incubated for an additional 2-4 hrs. Assay plates were read using an EnVision plate reader at an excitation wavelength of 544 nm and emission of 590 nm. Triplicate data points were averaged to generate sigmoidal dose response curve and determine IC50 values using XLfit curve fitting software from IDBS (Guildford, UK).
In general terms: The colour change of resazurin is a common sign of viable cells or microbes.

Assay [2] deals with L. infantum MHOM/MA(BE)/67 amastigotes in primary peritoneal mouse macrophages. Description: Leishmania infantum intracellular amastigote assay in mouse macrophages. The settings on record: Macrophage, 120 h. A digest of the protocol:
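Amastigotes harvested from infected hamster spleen infected primary peritoneal mouse macrophages (5×10^5 amastigotes/well, 2 h, 37 °C). Compounds then present 5 d at 37 °C, 5% CO2. Parasite burden counted by microscopy after Giemsa staining, as % of untreated controls; IC50 from sigmoidal variable-slope fit.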

In assay [3] the test system is T. cruzi Tulahuen strain C2C4 containing the β-galactosidase (Lac Z) gene in rat skeletal myoblasts (L-6 cells). Description: Trypanosoma cruzi C2C4 screening assay. On the procedure:
Example 113: Trypanosoma cruzi C2C4 Screening Assay Procedure
Rat skeletal myoblasts (L-6 cells) were seeded in 96-well microtiter plates at 2×10^3 cells/well in 100 μL RPMI 1640 medium with 10% FBS and 2 mM L-glutamine. After 24 h the medium was removed and replaced by 100 μL per well containing 5×10^3 trypomastigote forms of T. cruzi Tulahuen strain C2C4 containing the β-galactosidase (Lac Z) gene (Buckner, et al., Antimicrobial Agents and Chemotherapy, 40: 2592-2597 (1996)). After 48 h the medium was removed from the wells and replaced by 100 μL fresh medium with or without a serial drug dilution of the seven 3-fold dilution steps covering a range from 90 to 0.123 μg/mL. After 96 h of incubation the plates were inspected under an inverted microscope to assure growth of the controls and sterility. The substrate (50 μL) chlorophenol red-β-D-galactopyranoside (CPRG, Roche Diagnostics, Ltd) in 0.25% Nonidet P-40/PBS was added to all wells and a color reaction developed within 2-6 h which was read photometrically at 540 nm. Data were transferred into the graphic program Softmax Pro (Molecular Devices), which calculated IC50 values.

Assay [4] relates to Trypanosoma brucei rhodesiense STIB 900 strain. Description: Trypanosoma brucei rhodesiense STIB 900 screening assay. The settings on record: 72 h. A digest of the protocol:
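Bloodstream forms of T. b. rhodesiense STIB 900 (10^4 per well) cultured with seven 3-fold drug dilutions (90 to 0.123 μg/mL) in MEM with 15% horse serum, 72 h, 37 °C, 5% CO2. Alamar Blue added for 2-4 h more; fluorescence read at ex 536/em 588 nm for IC50.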

Setting [5] is: bloodstream form, 72 hrs incubation, resazurin, read-out: IC50: I Org. Growth T. brucei brucei SBRI 427, 3 d.
The mark [6] stands for this setting: amastigotes in primary peritoneal mouse macrophages, 5 d, Giemsa staining, read-out: Inhibition of Organism Growth in Leishmania infantum MHOM/MA/BE/67, 5 d.
The mark [7] stands for this setting: L6, in L-6 cells, 96 h, CPRG, read-out: SCYNEXIS IC50: I Org. Growth T. cruzi Tulahuen C2C4 Lac Z, 4 d.
Where [8] appears, read: STIB 900 bloodstream forms, Alamar Blue, protocol of Example 114, read-out: Swiss TPH T b rhodesiense IC50.
Setting [9] is: 72 h, read-out: IC50: I Org. Growth T. brucei brucei SBRI 427, 3 d [uM].
[10] abbreviates: read-out: Inhibition of Organism Growth in Leishmania infantum MHOM/MA/BE/67, 5 d [uM].
Setting [11] is: L6, 96 h, read-out: SCYNEXIS IC50: I Org. Growth T. cruzi Tulahuen C2C4 Lac Z, 4 d [uM].
Setting [12] is: read-out: Swiss TPH T b rhodesiense IC50.

Like-named read-outs stand apart in the source and are kept apart here.

Consider `O=C(Nc1ccc2c(c1)B(O)OC2)c1cn(-c2ccc(F)cc2)nn1` [Example 60, 1-(4-Fluorophenyl)-N-(1-hydroxy-1,3-dihydrobenzo[c][1,2]oxaborol-6-yl)-1H-1,2,3-triazole-4-carboxamide], for which the IC50 in assay [1] (setting [5]) is 0.075 to 0.15 µM; in assay [2] (setting [6]) it was less than 3 µM; in assay [3] (setting [7]) it was 0.06 to 0.1 µM; in assay [4] (setting [8]), less than 100 nM.

On to `O=C(Nc1ccc2c(c1)B(O)OC2)c1cn(-c2ccccn2)nn1` [Example 61, N-(1-hydroxy-1,3-dihydrobenzo[c][1,2]oxaborol-6-yl)-1-(pyridin-2-yl)-1H-1,2,3-triazole-4-carboxamide], for which the IC50 in assay [1] (setting [5]) was less than 0.075 µM; in assay [2] (setting [6]) it was less than 3 µM; in assay [3] (setting [7]) it was less than 0.06 µM; in assay [4] (setting [8]) it was 100 to 250 nM.

`O=C(Nc1ccc2c(c1)B(O)OC2)c1nnn(-c2ccccc2F)c1C(F)(F)F` [Example 67, 1-(2-Fluorophenyl)-N-(1-hydroxy-1,3-dihydrobenzo[c][1,2]oxaborol-6-yl)-5-(trifluoromethyl)-1H-1,2,3-triazole-4-carboxamide]: the IC50 was 20 to 100 µM in assay [2] (setting [6]) and 100 to 250 nM in assay [4] (setting [8]).

On to `O=C(Nc1ccc2c(c1)B(O)OC2)c1nnn(-c2ccccc2)c1C(F)(F)F` [Example 68, N-(1-hydroxy-1,3-dihydrobenzo[c][1,2]oxaborol-6-yl)-1-phenyl-5-(trifluoromethyl)-1H-1,2,3-triazole-4-carboxamide], for which the IC50 in assay [1] (setting [9]) was 0.151 to 10 µM; in assay [2] (setting [10]), less than 3 µM; in assay [3] (setting [11]), 0.11 to 1 µM; in assay [4] (setting [12]), less than 100 nM.

`O=C(Nc1ccc2c(c1)B(O)OC2)c1nnn(-c2cccc(F)c2)c1C(F)(F)F` [Example 69, 1-(3-Fluorophenyl)-N-(1-hydroxy-1,3-dihydrobenzo[c][1,2]oxaborol-6-yl)-5-(trifluoromethyl)-1H-1,2,3-triazole-4-carboxamide]: the IC50 in assay [2] (setting [6]) is less than 3 µM; in assay [4] (setting [8]), 100 to 250 nM.

For `O=C(Nc1ccc2c(c1)B(O)OC2)c1nnn(-c2ccc(F)cc2)c1C(F)(F)F` [Example 70, 1-(4-Fluorophenyl)-N-(1-hydroxy-1,3-dihydrobenzo[c][1,2]oxaborol-6-yl)-5-(trifluoromethyl)-1H-1,2,3-triazole-4-carboxamide], the results for the IC50 in assay [2] (setting [6]) and in assay [4] (setting [8]) were less than 3 µM and 100 to 250 nM, respectively.

Turning to `O=C(Nc1ccc2c(c1)B(O)OC2)c1nnn(-c2cccnc2)c1C(F)(F)F` [Example 71, N-(1-hydroxy-1,3-dihydrobenzo[c][1,2]oxaborol-6-yl)-1-(pyridin-3-yl)-5-(trifluoromethyl)-1H-1,2,3-triazole-4-carboxamide], the values for the IC50 in assay [2] (setting [6]) and in assay [4] (setting [8]) were less than 3 µM and 100 to 250 nM, respectively.

As for `Cc1c(C(=O)Nc2ccc3c(c2)B(O)OC3)nnn1-c1ccccn1` [Example 84, N-(1-hydroxy-1,3-dihydrobenzo[c][1,2]oxaborol-6-yl)-5-methyl-1-(pyridin-2-yl)-1H-1,2,3-triazole-4-carboxamide], the IC50 in assay [1] (setting [5]) is less than 0.075 µM; in assay [2] (setting [6]) it was less than 3 µM; in assay [3] (setting [7]), less than 0.06 µM.

Take `Cc1c(C(=O)Nc2ccc3c(c2)B(O)OC3)nnn1-c1ccccc1` [Example 89, A-(1-hydroxy-1,3-dihydrobenzo[c][1,2]oxaborol-6-yl)-5-methyl-1-phenyl-1H-1,2,3-triazole-4-carboxamide]: the IC50 in assay [1] (setting [9]) is less than 0.075 µM; in assay [2] (setting [10]), 20 to 100 µM; in assay [3] (setting [11]) it was less than 0.06 µM; in assay [4] (setting [12]), less than 100 nM.

Regarding `COc1ccc(-n2nnc(C(=O)Nc3ccc4c(c3)B(O)OC4)c2C)cc1` [Example 91, N-(1-hydroxy-1,3-dihydrobenzo[c][1,2]oxaborol-6-yl)-1-(4-methoxyphenyl)-5-methyl-1H-1,2,3-triazole-4-carboxamide], the IC50 in assay [1] (setting [5]) was less than 0.075 µM.

In the case of `Cc1c(C(=O)Nc2ccc3c(c2)B(O)OC3)nnn1-c1cccnc1` [Example 93, N-(1-hydroxy-1,3-dihydrobenzo[c][1,2]oxaborol-6-yl)-5-methyl-1-(pyridin-3-yl)-1H-1,2,3-triazole-4-carboxamide], the results for the IC50 in assay [2] (setting [6]) and in assay [4] (setting [8]) were 20 to 100 µM and 260 to 2000 nM, respectively.
